The values that follow come from US6617355B1, “Treating asthma by preventing and/or accomodating S-nitrosothiol breakdown” (The University of Virginia Patent Foundation, priority 1997, dated 2003).

Assay [1] has as its system patient with severe asthma. As to the kind of experiment: Treatment of patients with severe asthma or respiratory failure (Examples I-IX). The assay is classed as in vivo, human. The procedure:
A child with severe asthma developing symptoms of dyspnea, tachypnea, wheezing and cough is administered a 50 mM solution of L-gamma-glutamyl-(o-carboxy)phenylhydrazide as an aerosol via inhalation at a dosage of 0.01 ml/kg.
A person with severe asthma with symptoms of dyspnea on exertion, cough and prolonged expiration is administered a 10 mM solution of bathocuproine disulfonate via inhalation as an aerosol at a dose of 0.01 ml/kg.
A person with severe asthma with chronic symptoms of night-time cough, dyspnea and wheezing is maintained on inhalations of an aerosol of a 10 mM solution of each of S-nitrosoglutathione and aurothioglucose, at a dosage of 0.01 ml/kg.
A child with severe asthma and impending respiratory failure with symptoms of wheezing, cough and cyanosis is given terbutaline (5 μg/kg/min) by continuous IV-infusion. […] The terbutaline is replaced with an equimolar amount of terbutaline substituted with S-nitrosothiol group.
A person has respiratory failure with symptoms of wheezing, cough and cyanosis.
A person with respiratory failure with symptoms as described in Example V is given inhalation of a 10 mmol solution of S-nitroso-D-cysteine, 0.01 ml/kg.
A severe asthmatic with chronic dyspnea is given 30 mg daily prednisone.
A severe asthmatic is treated with inhalation of 1 mg allopurinol.
A severe asthmatic is treated with inhalation of a 10 mM solution of each of S-nitrosomethylmercaptan and ethacrynic acid, at a dosage of 0.01 ml/kg.

The subject of assay [2] is patients with mild or moderate asthma. As to the kind of experiment: Treatment of patients with mild or moderate asthma (Examples X-XI). Type of assay: in vivo, human. The procedure:
A child wakes up every night coughing and coughs on exertion. The patient is given inhalations of 0.01 ml/kg of a 10 mM solution of S-nitroso-D-cysteine.

Assay [3] relates to Guinea-pig tracheal rings. As to the kind of experiment: Relaxation of methacholine-contracted guinea-pig tracheal rings by S-nitrosoglutathione pre-incubated with or without lung fractions. The note with it: n=7. Type of assay: cell-based. The protocol: Guinea-pig tracheal and lung parenchymal tissue were separately homogenized in 1 mM ethylenediaminetetraacetic acid, 50 mM TRIS HC1 buffer, pH 7.4, 10 mg/liter soybean trypsin inhibitor, 10 mg/liter pepstatin, 10 mg/liter chymostatin and 100 mg/liter phenylmethylsulfonyl fluoride at 4° C. and underwent centrifugation (5,000 g; 5 min) and filtration. The supernatant was loaded onto a DEAE cellulose column and eluted with a linear gradient of 0-250 mM NaCl. The S-nitrosoglutathione degrading activity was assayed as NO evolution. The results are depicted in FIG. 1 (fractions causing a net loss of NO are represented by diamonds).
Guinea-pig tracheal rings were suspended in Krebs-Henseleit buffer (pH 7.4, 37 degrees C., equilibrated with 95% oxygen/5% carbon dioxide) and equilibrated under one gram tension. Smooth muscle contraction was monitored using a force transducer. After contraction with 5 μM methacholine, rings were exposed to S-nitrosoglutathione which had been incubated (30 minutes, pH 7.4, 25 degrees C.) (a) in phosphate buffered saline alone, (b) with guinea-pig lung protein fractions having S-nitroglutathione breakdown activity isolated as described in Background Example 2, and (c) with active lung fractions and 100 μM aurothioglucose. […]

With `NC(CCC(=O)NNc1ccccc1C(=O)O)C(=O)O` [L-gamma-glutamyl-(o-carboxy)phenylhydrazide], in assay [1] (Example I: child, severe asthma, 50 mM solution as aerosol via inhalation, 0.01 ml/kg), the asthma symptoms entry is on record as “symptoms improve”.
As to `N[C@H](CSN=O)C(=O)O` [S-nitroso-D-cysteine], the asthma symptoms result in assay [1] (Example VI: person, respiratory failure, inhalation of 10 mmol solution, 0.01 ml/kg) is “Improvement occurs”; in assay [2] (Example X: child, night cough and cough on exertion, inhalations of 0.01 ml/kg of 10 mM solution), “sleeps through the night and is able to participate in sports without shortness of breath”.
In the case of `N[C@@H](CCC(=O)N[C@@H](CSN=O)C(=O)NCC(=O)O)C(=O)O` [S-nitrosoglutathione], in assay [3] (rings contracted with 5 μM methacholine, S-nitrosoglutathione incubated 30 minutes, pH 7.4, 25 degrees C with guinea-pig lung protein fractions, p<0.005 for all concentrations >500 nM), the “relaxation of tracheal rings by S-nitrosoglutathione after incubation with active lung fractions” value was “relaxation was nearly completely inhibited”.
Regarding `N[C@H](C(=O)O)[C@@H]1CC(Cl)=NO1` [acivicin], the asthma symptoms result in assay [1] (Example V: person, respiratory failure, parenteral methylprednisone 4 mg/kg and terbutaline 5 μg/kg/min, then nebulized acivicin 0.01 mmol/kg) is “symptoms improve”; in assay [2] (Example XI: person, wheezing and coughing three times a year, nebulized 0.01 mmol/kg), “becomes asymptomatic”.
As to `Oc1ncnc2[nH]ncc12` [allopurinol], the asthma symptoms entry in assay [1] (Example VIII: severe asthmatic, inhalation of 1 mg) is given as “Symptoms improve”.
In the case of `OC[C@H]1O[C@H]([S-])[C@H](O)[C@@H](O)[C@@H]1O.[Au+]` [aurothioglucose], the “restoration of S-nitrosoglutathione relaxation by inhibitor of breakdown” value in assay [3] (S-nitrosoglutathione incubated with active lung fractions and 100 μM aurothioglucose, p<0.001 at 50 μM) is listed as “partially restored”.
Take `Cc1cc(-c2ccc(S(=O)(=O)O)cc2)c2ccc3c(-c4ccc(S(=O)(=O)O)cc4)cc(C)nc3c2n1` [bathocuproine disulfonate]: in assay [1] (Example II: person, severe asthma, 10 mM solution via inhalation as aerosol, 0.01 ml/kg), the asthma symptoms entry is on record as “symptoms improve”.
Turning to `CC(C)(C)NCC(O)c1cc(O)cc(O)c1` (stereo not shown) [terbutaline], the asthma symptoms result in assay [1] (Example IV: child, severe asthma, impending respiratory failure, continuous IV-infusion 5 μg/kg/min or equimolar amount) was “No improvement occurs”.
